From patent US20050255147A1, “Composition for dietary enrichment” (ZOOLIFE INTERNATIONAL LIMITED, priority 2002, published 2005) come the findings set out here.

Each structure is given as a SMILES string.

For this test, the system named is clown fish. In words: Skin coloration of clown fish on supplemented diet. To be noted: synthetic astaxanthin 1000 mg/kg granulated diet, compositions below 50 mg/kg astaxanthin in final feed. The format is in vivo.

On to `CC1=C(/C=C/C(C)=C/C=C/C(C)=C/C=C/C=C(C)/C=C/C=C(C)/C=C/C2=C(C)C(=O)[C@@H](O)CC2(C)C)C(C)(C)C[C@H](O)C1=O` [synthetic astaxanthin, astaxanthin], for which the skin coloration result is recorded as “do not to significantly alter skin coloration”.
